target: T1, USP28 (His-tagged USP28-FL-mammalian) (Homo sapiens, UniProt Q96RU2); assay: Ubiquitin-Rhodamine 110 Assay for USP28 Activity, Example A-1(a); type: biochemical; conditions: Ubiquitin-Rhodamine 110 assay, IC50 ranges, read-out: USP28 A-1(a) IC50
T1 construct: Expression of USP28 (1-1077)-TEV-6*His (pTT5 vector) was carried out in Expi293f cells; made in house; host or cells: Expi293F cells (pTT5 vector)
T1 sequence (Q96RU2 1-1077): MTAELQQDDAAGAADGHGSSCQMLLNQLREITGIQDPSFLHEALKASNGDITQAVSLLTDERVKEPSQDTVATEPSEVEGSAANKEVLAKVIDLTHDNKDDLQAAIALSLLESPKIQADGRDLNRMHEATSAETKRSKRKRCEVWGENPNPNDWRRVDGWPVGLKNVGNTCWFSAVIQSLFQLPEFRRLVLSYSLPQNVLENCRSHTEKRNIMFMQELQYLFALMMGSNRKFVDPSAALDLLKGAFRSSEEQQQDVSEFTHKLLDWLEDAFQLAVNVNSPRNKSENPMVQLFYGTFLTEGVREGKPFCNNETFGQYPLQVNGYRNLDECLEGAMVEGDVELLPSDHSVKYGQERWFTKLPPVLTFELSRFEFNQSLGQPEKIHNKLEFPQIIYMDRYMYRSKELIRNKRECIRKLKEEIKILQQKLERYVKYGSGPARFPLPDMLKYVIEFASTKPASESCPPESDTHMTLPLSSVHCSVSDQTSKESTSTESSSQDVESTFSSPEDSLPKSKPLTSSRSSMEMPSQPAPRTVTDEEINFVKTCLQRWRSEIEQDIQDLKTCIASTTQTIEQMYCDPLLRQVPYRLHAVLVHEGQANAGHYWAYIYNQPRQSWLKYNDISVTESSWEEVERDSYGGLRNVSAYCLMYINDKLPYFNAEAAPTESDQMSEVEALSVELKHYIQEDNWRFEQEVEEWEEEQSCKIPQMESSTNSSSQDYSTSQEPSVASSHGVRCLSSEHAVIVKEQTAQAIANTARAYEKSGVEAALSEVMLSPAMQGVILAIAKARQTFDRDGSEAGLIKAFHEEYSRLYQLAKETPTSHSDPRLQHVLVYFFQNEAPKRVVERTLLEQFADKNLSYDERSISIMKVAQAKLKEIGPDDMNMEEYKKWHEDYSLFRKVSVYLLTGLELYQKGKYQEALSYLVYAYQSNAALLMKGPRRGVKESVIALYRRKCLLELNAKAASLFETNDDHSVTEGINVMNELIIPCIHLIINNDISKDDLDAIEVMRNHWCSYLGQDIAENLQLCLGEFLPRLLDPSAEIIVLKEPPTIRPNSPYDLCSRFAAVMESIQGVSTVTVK
Summary of the method: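 IC50s were fitted with a 4-parameter logistic to percent inhibition relative to no-enzyme and DMSO controls, using Rhodamine 110 fluorescence (485/535 nm) released from 25 nM Ub-Rh110. The enzyme was Expi293F-expressed USP28-FL-His at […], preincubated 30 min with compound (10-point, 25 μM top) in Tris pH 8.0 buffer containing BGG and Triton X-100. Substrate turnover ran 45 min at room temperature and was stopped with 10 mM citric acid.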

Question: How did the IC50 turn out when `N#Cc1c(N2CC3CCC(C2)N3)cc(F)c2c1OC[C@H](NC(=O)c1cnc3c(c1)[C@@H]1CC1CN3)C2` (stereo partly drawn) [Example 228, (6aS,7aR)-N-[(3R)-8-cyano-7-(3,8-diazabicyclo[3.2.1]octan-3-yl}-5-fluoro-3,4-dihydro-2H-1-benzopyran-3-yl]-5H,6H,6aH,7H,7aH-cyclopropa[c]1,8-naphthyridine-2-carboxamide] was run?
Answer: 200 to 2000 nM

same assay, conditions: Ubiquitin-Rhodamine 110 assay, read-out: USP28 A-1(a) IC50 range

Question: Which IC50 does the source give for `Cc1ccc2c(N)c(C(=O)N[C@H]3COc4cc(N5C[C@H](CF)[C@H](N)C5)ccc4C3)sc2n1` (single isomer, unassigned) [Example 424] here?
Answer: 1 to 50 nM

Question: With `Cc1ccc2c(N)c(C(=O)N[C@H]3COc4cc(N5C[C@H](N)[C@@]6(CCOC6)C5)ccc4C3)sc2n1` (single isomer, unassigned) [Example 439] as the compound, how does the IC50 read?
Answer: 1 to 50 nM

Question: How did the IC50 turn out when `Cc1ccc2c(N)c(C(=O)N[C@H]3COc4cc(N5C[C@H]6CC[C@@H]5CN6)ncc4C3)sc2n1` [Example 76, N-((R)-7-((1R,4R)-2,5-diazabicyclo[2.2.2]octan-2-yl)-3,4-dihydro-2H-pyrano[3,2-c]pyridin-3-yl)-3-amino-6-methylthieno[2,3-b]pyridine-2-carboxamide] was run?
Answer: 1 to 50 nM

Question: How did the IC50 turn out when `CO[C@H]1CN(c2ccc3c(c2)OC[C@H](NC(=O)c2sc4nc(C)cnc4c2N)C3)C[C@@H]1N` [Example 117] was run?
Answer: 1 to 50 nM

Question: Which IC50 does the source give for `CO[C@H]1CN(c2ccc3c(c2)OC[C@H](NC(=O)c2sc4nc(C)sc4c2N)C3)CC1N` (stereo partly drawn) [Example 118, 6-amino-N-[(3R)-7-[(3,4S)-3-amino-4-methoxypyrrolidin-1-yl]-3,4-dihydro-2H-1-benzopyran-3-yl]-2-methylthieno[2,3-d][1,3]thiazole-5-carboxamide] here?
Answer: 50 to 200 nM

Question: How did the IC50 turn out when `COC[C@@]1(C)CN(c2ccc3c(n2)CC[C@H](NC(=O)c2sc4nc(C)ccc4c2N)C3)C[C@H]1N` [Example 343, 3-amino-N-[(6S)-2-[(3S,4S)-4-amino-3-(methoxymethyl)-3-methylpyrrolidin-1-yl]-5,6,7,8-tetrahydroquinolin-6-yl]-6-methylthieno[2,3-b]pyridine-2-carboxamide] was run?
Answer: 50 to 200 nM

Question: How did the IC50 turn out when `Cc1ccc2c(N)c(C(=O)N[C@H]3CCc4nc(N5C[C@H](N)[C@@]6(CCOC6)C5)ccc4C3)sc2n1` [Example 437, 3-amino-N-[(6S)-2-[(5R,9R)-9-amino-2-oxa-7-azaspiro[4.4]nonan-7-yl]-5,6,7,8-tetrahydroquinolin-6-yl]-6-methylthieno[2,3-b]pyridine-2-carboxamide] was run?
Answer: 50 to 200 nM

Question: How did the IC50 turn out when `Cc1ccc2c(N)c(C(=O)N[C@H]3CCc4nc(N5C[C@@H](N)[C@]6(CCOC6)C5)ccc4C3)sc2n1` [Example 438, 3-amino-N-[(6S)-2-[(5S, 9S)-9-amino-2-oxa-7-azaspiro[4.4]nonan-7-yl]-5,6,7,8-tetrahydroquinolin-6-yl]-6-methylthieno[2,3-b]pyridine-2-carboxamide] was run?
Answer: 50 to 200 nM

Question: `CN[C@H]1CN(c2ccc3c(n2)CC[C@H](NC(=O)c2sc4nc(C)ccc4c2N)C3)C[C@H]1CF` [Example 441, 3-amino-N-[(6S)-2-[(3R,4R)-3-(fluoromethyl)-4-(methylamino)pyrrolidin-1-yl]-5,6,7,8-tetrahydroquinolin-6-yl]-6-methylthieno[2,3-b]pyridine-2-carboxamide] was tested. Which IC50 did it give?
Answer: 50 to 200 nM

Question: With `CN[C@@H]1CN(c2ccc3c(n2)CC[C@H](NC(=O)c2sc4nc(C)ccc4c2N)C3)C[C@@H]1CF` [Example 442, 3-amino-N-[(6S)-2-[(3S,4S)-3-(fluoromethyl)-4-(methylamino)pyrrolidin-1-yl]-5,6,7,8-tetrahydroquinolin-6-yl]-6-methylthieno[2,3-b]pyridine-2-carboxamide] as the compound, how does the IC50 read?
Answer: 50 to 200 nM

Question: How did the IC50 turn out when `Cc1ccc2c(N)c(C(=O)N[C@@H]3CCc4nc(N5C[C@@H](CF)[C@@H](N)C5)ncc4C3)sc2n1` [Example 445, 3-amino-N-[(6R)-2-[(3R,4R)-3-amino-4-(fluoromethyl)pyrrolidin-1-yl]-5,6,7,8-tetrahydroquinazolin-6-yl]-6-methylthieno[2,3-b]pyridine-2-carboxamide] was run?
Answer: 200 to 2000 nM

Question: Which IC50 does the source give for `Cc1ccc2c(N)c(C(=O)N[C@@H]3CCc4nc(N5C[C@H](CF)[C@H](N)C5)ncc4C3)sc2n1` [Example 446, 3-amino-N-[(6R)-2-[(3S,4S)-3-amino-4-(fluoromethyl)pyrrolidin-1-yl]-5,6,7,8-tetrahydroquinazolin-6-yl]-6-methylthieno[2,3-b]pyridine-2-carboxamide] here?
Answer: 200 to 2000 nM

same assay, conditions: biochemical IC50 range, Ubiquitin-Rhodamine 110 assay, read-out: USP28 A-1(a)

Question: `Cc1ccc2c(N)c(C(=O)N[C@H]3CCc4c(F)c(N5CC6CCC(C5)N6)cc(F)c4C3)sc2n1` (single isomer, unassigned) [Example 603] was tested. Which IC50 did it give?
Answer: 1 to 50 nM

Question: Which IC50 does the source give for `COC1CN(c2ccc3c(c2)CC[C@H](NC(=O)c2sc4nc(C)cnc4c2N)C3)CC1N` (stereo in doubt) [Example 130, 7-amino-N-[(2S)-6-[(3S,4S)-3-amino-4-methoxypyrrolidin-1-yl]-1,2,3,4-tetrahydronaphthalen-2-yl]-3-methylthieno[2,3-b]pyrazine-6-carboxamide] here?
Answer: 50 to 200 nM

Question: Which IC50 does the source give for `CO[C@H]1CN(c2ccc3c(c2)CC[C@H](NC(=O)c2sc4nc(C)ccc4c2N)C3)C[C@H]1N` [Example 144, 3-amino-N-[(2S)-6-[(3R,4S)-3-amino-4-methoxypyrrolidin-1-yl]-1,2,3,4-tetrahydronaphthalen-2-yl]-6-methylthieno[2,3-b]pyridine-2-carboxamide] here?
Answer: 50 to 200 nM

Question: `CO[C@@H]1CN(c2ccc3c(c2)OC[C@H](NC(=O)c2sc4nc(C)cnc4c2N)C3)C[C@@H]1N` [Example 147, 7-amino-N-[(3R)-7-[(3S,4R)-3-amino-4-methoxypyrrolidin-1-yl]-3,4-dihydro-2H-1-benzopyran-3-yl]-3-methylthieno[2,3-b]pyrazine-6-carboxamide] was tested. Which IC50 did it give?
Answer: 50 to 200 nM

Question: How did the IC50 turn out when `Cc1ccc2c(N)c(C(=O)N[C@H]3COc4cc(N5C[C@H](N)[C@]6(CCOC6)C5)ccc4C3)sc2n1` [Example 656, 3-amino-N-[(3R)-7-[(5S,9R)-9-amino-2-oxa-7-azaspiro[4.4]nonan-7-yl]-3,4-dihydro-2H-1-benzopyran-3-yl]-6-methylthieno[2,3-b]pyridine-2-carboxamide] was run?
Answer: 1 to 50 nM

Question: With `Cc1ccc2c(N)c(C(=O)N[C@H]3CCc4cc(N5C[C@H](CF)[C@H](N)C5)ccc4C3)sc2n1` [Example 657, 3-amino-N-[(2S)-6-[(3S,4S)-3-amino-4-(fluoromethyl)pyrrolidin-1-yl]-1,2,3,4-tetrahydronaphthalen-2-yl]-6-methylthieno[2,3-b]pyridine-2-carboxamide] as the compound, how does the IC50 read?
Answer: 50 to 200 nM

Question: `Cc1ccc2c(N)c(C(=O)N[C@H]3COc4cc(N5C[C@H](N)[C@](C)(CF)C5)ccc4C3)sc2n1` [Example 658, 3-amino-N-[(3R)-7-[(3R,4R)-4-amino-3-(fluoromethyl)-3-methylpyrrolidin-1-yl]-3,4-dihydro-2H-1-benzopyran-3-yl]-6-methylthieno[2,3-b]pyridine-2-carboxamide] was tested. Which IC50 did it give?
Answer: 1 to 50 nM

Question: Which IC50 does the source give for `Cc1ccc2c(N)c(C(=O)N[C@H]3COc4cc(N5C[C@H](N)[C@@](C)(CF)C5)ccc4C3)sc2n1` [Example 659, 3-amino-N-[(3R)-7-[(3S,4R)-4-amino-3-(fluoromethyl)-3-methylpyrrolidin-1-yl]-3,4-dihydro-2H-1-benzopyran-3-yl]-6-methylthieno[2,3-b]pyridine-2-carboxamide] here?
Answer: 1 to 50 nM
